Tests used:
[1] = system: IL-6 release by human fibroblast cell line LL29; assay: NECA-induced IL-6 release by LL29 fibroblasts (ELISA); type: cell-based; settings: NECA 10 μM, 24 hours incubation, IL-6 ELISA of supernatant, in some cases means, rounded to two significant digits
Method: B-2. Measurement of NECA-Induced IL-6 Release by LL29 Fibroblasts
Stimulation of fibroblasts with adenosine or the adenosine analog 5′-N-ethylcarboxamidoadenosine (NECA) leads to release of the pro-inflammatory and pro-fibrotic cytokine IL-6 which can be prevented by inhibition of the A2b receptor.
Accordingly, confluent cells of the human fibroblast cell line LL29 were treated with the test substances and stimulated with NECA (10 μM). After an incubation time of 24 hours, the cell supernatant is removed and human IL-6 in the cell supernatant is determined by ELISA (Quantikine® IL6 ELISA, R&D Systems, Minneapolis, USA).

[2] = target: T1, human adenosine A2b receptor (Homo sapiens, UniProt P29275); assay: Cellular reporter gene (CRE-luciferase) A2b receptor antagonist assay in recombinant CHO-K1 cells stimulated with NECA; type: cell-based; settings: recombinant CHO-K1 cell line, co-incubation with EC50 concentration of NECA, 3 hours, in some cases means, rounded to two significant digits
T1 construct: expressed in transfected cells; host or cells: CHO-K1 (Chinese Hamster Ovary) with CRE-luciferase reporter
T1 sequence (P29275 1-332): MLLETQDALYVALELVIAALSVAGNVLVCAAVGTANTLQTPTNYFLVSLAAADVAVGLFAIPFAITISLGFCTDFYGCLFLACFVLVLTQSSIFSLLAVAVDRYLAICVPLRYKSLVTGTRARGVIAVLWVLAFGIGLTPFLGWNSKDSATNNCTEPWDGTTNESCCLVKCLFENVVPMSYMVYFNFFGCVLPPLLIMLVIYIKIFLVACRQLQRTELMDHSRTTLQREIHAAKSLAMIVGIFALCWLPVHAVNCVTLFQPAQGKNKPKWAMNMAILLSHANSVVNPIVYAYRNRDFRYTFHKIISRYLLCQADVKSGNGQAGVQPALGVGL
Outline: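 CHO-K1 cells expressing human A2b receptor with a CRE-driven firefly luciferase reporter, co-incubated with test compound and NECA at its same-day EC50 concentration. Luminescence read 3 hours after NECA addition.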

Structure (SMILES) | IC50 [2] | IC50 [1]
Cc1c(C(=O)N2CCC(O)CC2)sc2c1c(=O)n(CCc1cccnc1)c(=O)n2CCC=C(F)F [Example 16, 1-(4,4-Difluorobut-3-en-1-yl)-6-[(4-hydroxypiperidin-1-yl)carbonyl]-5-methyl-3-[2-(pyridin-3-yl)ethyl]thieno[2,3-d]pyrimidine-2,4(1H,3H)-dione] | 38 nM | 89 nM
CCn1c(=O)c2c(C)c(C(=O)N3CCC(O)CC3)sc2n(CCC(F)(F)F)c1=O [Example 18, 3-Ethyl-6-[(4-hydroxypiperidin-1-yl)carbonyl]-5-methyl-1-(3,3,3-trifluoropropyl)thieno[2,3-d]pyrimidine-2,4(1H,3H)-dione] | 57 nM | 170 nM
Cc1c(C(=O)N2CCNC(=O)C2)sc2c1c(=O)n(CCc1ccccc1Cl)c(=O)n2CCC=C(F)F [Example 32, 3-[2-(2-Chlorophenyl)ethyl]-1-(4,4-difluorobut-3-en-1-yl)-5-methyl-6-[(3-oxopiperazin-1-yl)carbonyl]thieno[2,3-d]pyrimidine-2,4(1H,3H)-dione] | 110 nM | 230 nM
Cc1c(C(=O)N2CCNC(=O)C2)sc2c1c(=O)n(CCc1cccnc1)c(=O)n2CCC(F)(F)F [Example 33, 5-Methyl-6-[(3-oxopiperazin-1-yl)carbonyl]-3-[2-(pyridin-3-yl)ethyl]-1-(3,3,3-trifluoropropyl)thieno[2,3-d]pyrimidine-2,4(1H,3H)-dione] | 67 nM | 140 nM
CCn1c(=O)c2c(C)c(C(=O)N3CCNC(=O)C3)sc2n(CCC(F)(F)F)c1=O [Example 35, 3-Ethyl-5-methyl-6-[(3-oxopiperazin-1-yl)carbonyl]-1-(3,3,3-trifluoropropyl)thieno[2,3-d]pyrimidine-2,4(1H,3H)-dione] | 120 nM | 250 nM
Cc1c(C(=O)N2CCC(O)CC2)sc2c1c(=O)n(CCc1ccncc1)c(=O)n2CCC(F)(F)F [Example 54, 6-[(4-Hydroxypiperidin-1-yl)carbonyl]-5-methyl-3-[2-(pyridin-4-yl)ethyl]-1-(3,3,3-trifluoropropyl)thieno[2,3-d]pyrimidine-2,4(1H,3H)-dione] | 76 nM | 330 nM
CCn1c(=O)c2c(C)c(C(=O)N3CCC(O)(CO)CC3)sc2n(CCC(F)(F)F)c1=O [Example 74, 3-Ethyl-6-{[4-hydroxy-4-(hydroxymethyl)piperidin-1-yl]carbonyl}-5-methyl-1-(3,3,3-trifluoropropyl)thieno[2,3-d]pyrimidine-2,4(1H,3H)-dione] | 110 nM | 250 nM

The next molecules have a lower IC50 [2] than those just listed; values first:

IC50 [2] | Structure (SMILES) | IC50 [1]
20 nM | Cc1ccccc1CCn1c(=O)c2c(C)c(C(=O)N3CCC(O)CC3)sc2n(CCC(F)(F)F)c1=O [Example 8, 6-[(4-Hydroxypiperidin-1-yl)carbonyl]-5-methyl-3-[2-(2-methylphenyl)ethyl]-1-(3,3,3-trifluoropropyl)thieno[2,3-d]pyrimidine-2,4(1H,3H)-dione] | 34 nM
25 nM | CCn1c(=O)c2c(C)c(C(=O)N3CCC(C)(O)CC3)sc2n(CCC(F)(F)F)c1=O [Example 21, 3-Ethyl-6-[(4-hydroxy-4-methylpiperidin-1-yl)carbonyl]-5-methyl-1-(3,3,3-trifluoropropyl)thieno [2,3-d]pyrimidine-2,4(1H,3H)-dione] | 69 nM
13 nM | O=C(c1sc2c(c1C(F)(F)F)c(=O)n(CCc1ccccc1)c(=O)n2CCC(F)(F)F)N1CCC(O)CC1 [Example 24, 6-[(4-Hydroxypiperidin-1-yl)carbonyl]-3-(2-phenylethyl)-5-(trifluoromethyl)-1-(3,3,3-trifluoropropyl)thieno[2,3-d]pyrimidine-2,4(1H,3H)-dione] | 10 nM
17 nM | Cc1c(C(=O)N2CCNC(=O)C2)sc2c1c(=O)n(CCc1ccccc1)c(=O)n2CCC(F)(F)F [Example 26, 5-Methyl-6-[(3-oxopiperazin-1-yl)carbonyl]-3-(2-phenylethyl)-1-(3,3,3-trifluoropropyl)thieno[2,3-d]pyrimidine-2,4(1H,3H)-dione] | 53 nM
21 nM | Cc1c(C(=O)N2CCNC(=O)C2)sc2c1c(=O)n(CCc1ccccc1F)c(=O)n2CCC(F)(F)F [Example 29, 3-[2-(2-Fluorophenyl)ethyl]-5-methyl-6-[(3-oxopiperazin-1-yl)carbonyl]-1-(3,3,3-trifluoropropyl)thieno[2,3-d]pyrimidine-2,4(1H,3H)-dione] | 23 nM
16 nM | Cc1c(C(=O)N2CCNC(=O)C2)sc2c1c(=O)n(CCc1ccccc1Cl)c(=O)n2CCC(F)(F)F [Example 31, 3-[2-(2-Chlorophenyl)ethyl]-5-methyl-6-[(3-oxopiperazin-1-yl)carbonyl]-1-(3,3,3-trifluoropropyl)thieno[2,3-d]pyrimidine-2,4(1H,3H)-dione] | 16 nM
26 nM | O=C1CN(C(=O)c2sc3c(c2C(F)(F)F)c(=O)n(CCc2ccccc2)c(=O)n3CCC(F)(F)F)CCN1 [Example 41, 6-[(3-Oxopiperazin-1-yl)carbonyl]-3-(2-phenylethyl)-5-(trifluoromethyl)-1-(3,3,3-trifluoropropyl)thieno[2,3-d]pyrimidine-2,4(1H,3H)-dione] | 29 nM
8.7 nM | CCc1c(C(=O)N2CCC(C)(O)CC2)sc2c1c(=O)n(CC)c(=O)n2CCC(F)(F)F [Example 88, 3,5-Diethyl-6-[(4-hydroxy-4-methylpiperidin-1-yl)carbonyl]-1-(3,3,3-trifluoropropyl)thieno[2,3-d]pyrimidine-2,4(1H,3H)-dione] | 9 nM
35 nM | CCc1c(C(=O)N2CCC(O)(CO)CC2)sc2c1c(=O)n(CC)c(=O)n2CCC(F)(F)F [Example 89, 3,5-Diethyl-6-{[4-hydroxy-4-(hydroxymethyl)piperidin-1-yl]carbonyl}-1-(3,3,3-trifluoropropyl)thieno[2,3-d]pyrimidine-2,4(1H,3H)-dione] | 48 nM
